The results in this text go back to publication PMC4116459 (Molecular microbiology, 2014).

A word on the Kd: it is the free concentration of one partner at which half of the binding sites on the other are occupied at equilibrium, for simple one-to-one binding.

Assay [1] has as its target T1, YcgR (Escherichia coli, UniProt P76010).
T1 sequence (P76010 1-244): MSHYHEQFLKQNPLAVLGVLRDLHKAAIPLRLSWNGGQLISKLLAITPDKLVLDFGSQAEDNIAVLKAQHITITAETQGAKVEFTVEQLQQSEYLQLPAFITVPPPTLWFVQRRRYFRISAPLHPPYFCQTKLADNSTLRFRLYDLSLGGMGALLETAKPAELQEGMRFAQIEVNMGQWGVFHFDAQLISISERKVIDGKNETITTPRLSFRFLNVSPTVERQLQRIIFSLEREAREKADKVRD
Description: […]-c-di-GMP DRaCALA with cell lysates, competed by unlabeled c-di-GMP. Format: cell-based.

For assay [2], the target named is BcsE (Escherichia coli, UniProt P37657). Description: equilibrium dialysis with purified MBP-BcsE. The assay is classed as binding. (In general: In equilibrium dialysis free small molecules cross a membrane that holds back macromolecules.)
Chain of BcsE (P37657 whole entry): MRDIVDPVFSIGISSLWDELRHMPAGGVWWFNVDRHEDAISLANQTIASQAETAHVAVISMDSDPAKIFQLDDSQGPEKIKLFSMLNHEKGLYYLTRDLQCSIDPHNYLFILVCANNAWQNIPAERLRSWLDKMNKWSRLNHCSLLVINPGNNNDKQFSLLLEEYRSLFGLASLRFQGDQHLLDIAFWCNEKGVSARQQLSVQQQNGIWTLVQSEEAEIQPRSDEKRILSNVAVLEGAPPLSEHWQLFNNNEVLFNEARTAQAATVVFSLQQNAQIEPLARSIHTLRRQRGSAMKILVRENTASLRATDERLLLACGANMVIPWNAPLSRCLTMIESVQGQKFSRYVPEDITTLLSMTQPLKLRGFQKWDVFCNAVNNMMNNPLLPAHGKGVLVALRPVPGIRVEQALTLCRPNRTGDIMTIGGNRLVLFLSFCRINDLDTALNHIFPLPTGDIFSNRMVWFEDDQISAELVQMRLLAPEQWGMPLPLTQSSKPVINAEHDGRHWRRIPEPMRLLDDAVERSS

With `Nc1nc2c(ncn2[C@@H]2O[C@@H]3COP(=O)(O)O[C@H]4[C@@H](O)[C@H](n5cnc6c(=O)[nH]c(N)nc65)O[C@@H]4COP(=O)(O)O[C@H]3[C@H]2O)c(=O)[nH]1` [c-di-GMP], in assay [1], the “33P-c-di-GMP DRaCALA with cell lysates, competed by unlabeled c-di-GMP” value is “Only the YcgR and Clp lysates produced positive signals (Fig. 1B)”. In assay [2], the Kd is 2420 nM.
